Key:
HL-60 = test: NCI dose-dependent growth inhibition, HL-60; format: cell-based; settings: Homo sapiens; HL-60, 48-h exposure
From the text: (§1) The three compounds were particularly active against leukemia cell lines. […] Without wishing to be limited by any theory, such differences in biochemical and biological patterns may be explained by differences in the cell permeabilities or stabilities of the two compounds. […] Data provided by the National Cancer Institute (NCI): […] The optical density of the test well after a 48-h period of exposure to test drug is T, the optical density at time zero is T0, and the control optical density is C. The “50” is called the […] parameter that can have values from +100 to -100.

K-562 = test: NCI dose-dependent growth inhibition, K-562; format: cell-based; settings: Homo sapiens, K562; K-562, 48-h exposure
From the text: as §1

MOLT-4 = test: NCI dose-dependent growth inhibition, MOLT-4; format: cell-based; settings: Homo sapiens; MOLT-4, 48-h exposure
From the text: as §1

RPMI-8226 = test: NCI dose-dependent growth inhibition, RPMI-8226; format: cell-based; settings: Homo sapiens; RPMI-8226, 48-h exposure
From the text: as §1

SR = test: NCI dose-dependent growth inhibition, SR; format: cell-based; settings: Homo sapiens, 48-h exposure
From the text: as §1

[1] = target: T1, human 20S proteasome (hs20S), chymotrypsin-like β5-subunits (Homo sapiens, UniProt P20618+P28074); test: In vitro 20S peptidase inhibition kinetics, chymotrypsin-like activity (Suc-LLVY-AMC); format: biochemical; settings: second-order rate constant, Suc-LLVY-AMC substrate, 37° C.
T1 construct: purchased R&D
Protocol: In vitro 20S peptidase inhibition assays were recorded in a 384-well plate at a SpectraMax M5 (Molecular devises) plate-reader. Therefore, 5 nM human 20S (R&D) was incubated in buffer R (50 mM HEPES-KOH, pH 7.5, 0.5 mM EDTA) with 100 μM of the fluorogenic peptide substrates Suc-LLVY-AMC or Boc-LRR-AMC. Reactions were started by adding various amounts of inhibitors (5 nM to 500 μM) to a final volume of 30 μL and peptide hydrolysis was continuously monitored for 90 min by changes in fluorescence (excitation 380 nm; emission 440 nm) at 37° C. The kobs values were determined by fitting the raw data to equation (1). The slopes of the plots of kobsversus I gave an apparent value of kobs/I, also referred to as kinact/Ki for an irreversible inhibitor, which was then corrected by equation (2) to compensate for the effect of substrate competition, where app is the apparent value at different inhibitor concentrations.
Using purified human 20S proteasome (hs20S) and a fluorogenic substrate (Suc-LLVY-AMC), in vitro assays were performed to systematically assess proteasome inhibition by the syringolin analogues. The choice of substrate was based on the fact that it is preferentially acted upon by the chymotrypsin-like β5-subunits of the proteasome due to the aromatic tyrosine residue at the scissile bond (i.e., P1 position).
From measurements of the rates of hydrolysis of the fluorogenic substrate by the proteasome in the presence of increasing concentrations of each inhibitor, second-order rate constants kin/Ki (M^−1 s^−1) were determined (Table 1), which reflect both the affinity of the non-covalent binding (Ki) and the rate of the chemical reaction with the enzyme (kin). All of the syringolin analogues were capable in inhibiting the chymotrypsin-like activity of hs20S. Without wishing to be limited by any theory, consistent with the design predictions, the most significant contributor to the apparent second-order rate constants of the compounds was their binding affinity (Ki) rather than the rates of inhibition.
In vitro 20S peptidase inhibition assays were recorded in a 384-well plate at a SpectraMax M5 (Molecular Devices) plate-reader. Therefore, 5 nM human 20S (R&D) was incubated in buffer R (50 mM HEPEs-KOH, pH 7.5, 0.5 mM EDTA) with 100 μM of the fluorogenic peptide substrate Suc-LLVY-AMC. Reactions were started by adding various amounts of inhibitors 5 nM to 500 μM) to a final volume of 30 μL and peptide hydrolysis was continuously monitored for 90 minutes by changes in fluorescence (excitation 380 nm; emission 440 nm) at 37 degrees Celsius. The kobs values were determined by fitting the raw data to equation 1. The slopes of the plots of kobs versus I gave an apparent value of kob/I, also referred to as kinact/Ki for an irreversible inhibitor, which was then corrected by equation 2 to compensate for the effect of substrate competition, where app is the apparent value at different inhibitor concentrations.

[2] = system: 60 different cancer cell lines; test: NCI single-dose growth assay with 60 cancer cell lines; format: cell-based; settings: 10 μM, average over the panel of cell lines
Protocol: FIG. 6 illustrates the in vitro inhibition results for compound 1, while FIG. 7 illustrates the in vitro inhibition results for compound 13. FIG. 8 illustrates the in vitro inhibition results for compound 14, while FIG. 9 illustrates the in vitro inhibition results for compound 15. FIG. 10 illustrates the in vitro inhibition results for compound 16. […] Specifically, cell lines incubated in media with 10 μM of compound 15 grew at an average of 30% of those incubated in media without compound. The mean growth of the cell lines in media with the same concentration of compound 16 was approximately 71% of those in negative control experiments.

leukemia cell lines = test: NCI dose-dependent growth inhibition, leukemia cell lines overall; format: cell-based; settings: as much as, fold more potent
From the text: as §1

Row | hs20S kin/Ki [1] | SMILES | GI50 (HL-60) [µM] | GI50 (K-562) [µM] | GI50 (MOLT-4) [µM] | GI50 (RPMI-8226) [µM] | GI50 (SR) [µM] | mean growth of cell lines relative to media without compound [2] | potency relative to syringolin B methyl ester (1) against the leukemia cell lines (leukemia cell lines) [fold]
1 | – | COC(=O)[C@@H](NC(=O)N[C@H](C(=O)N[C@H]1CCCCNC(=O)/C=C/[C@H](C(C)C)NC1=O)C(C)C)C(C)C [Compound 1, Syringolin B Methyl Ester, reference compound] | 5.41 | 6.12 | 4.73 | 3.97 | 5.13 | – | –
2 | 4,199 M^−1s^−1 | COC(=O)[C@@H](NC(=O)N[C@@H](Cc1ccccc1)C(=O)N[C@H]1CCCCNC(=O)/C=C/[C@H](Cc2ccccc2)NC1=O)C(C)C [Compound 15, (S)-methyl 2-(3-((S)-1-(((5S,8S,E)-5-benzyl-2,7-dioxo-1,6-diazacyclododec-3-en-8-yl)amino)-1-oxo-3-phenylpropan-2-yl)ureido)-3-methylbutanoate] | 4.34 | 14.6 | 3.32 | 2.72 | 2.78 | 30% | –
3 | – | COC(=O)[C@@H](NC(=O)N[C@@H](Cc1ccccc1)C(=O)N[C@H]1CCCCNC(=O)/C=C/[C@H](Cc2c[nH]c3ccccc23)NC1=O)C(C)C [Compound 16] | 1.29 | 2.94 | 0.599 | 0.343 | 0.453 | approximately 71% | ≤ 11.5
